Data published in patent US20200390729A1, “OPHTHALMIC TOPICAL COMPOSITION COMPRISING DOBESILIC ACID FOR TREATING DISEASES OF THE POSTERIOR SEGMENT OF THE EYE” (LABORATORIOS SALVAT, S.A., priority 2017, published 2020).

System: egg chorioallantoic membrane (CAM)
Experiment: Ocular irritation assay (HET-CAM)
Set-up: species or system White Leghorn chicken eggs
Details: 100 mg/ml, CAM observed for 5 minutes
Source text: The HET-CAM is an alternative method to the Draize Rabbit Eye Test which mimics vascular changes in the chorioallantoic membrane, an analog for ocular conjunctiva, which can be used to determine the potential irritancy of a test substance. This method is based on that described in Hen's Egg Test-Chorioallantoic Membrane (HET-CAM) Test Method (ICCVAM-Recommended Test Method Protocol, NIH Publication No. 10-7553—Published 2010)
Fertilized white SPF (special pathogen free) White Leghorn chicken eggs were incubated at 37° C. and 60% humidity up to day 10. After determination of the viability of the embryo, a rectangular window was removed from the shell directly over the air cell and the egg membrane was carefully moistened with 2-3 ml 0.9% saline. After returning to the incubator for 30 minutes, the inner membrane was removed and the test substance was applied to the CAM membrane with a pipette. Eggs were observed continuously for 5 minutes for the appearance of lysis, hemorrhage and/or coagulation and an irritation score (IS) was determined following the ICCVAM-Recommended Test Method Protocol (NIH Publication No. 10-7553-Published 2010) guideline.

| SMILES | HET-CAM irritation characterization | HET-CAM lysis, haemorrhage or coagulation processes |
| --- | --- | --- |
| CCNCC.O=S(=O)(O)c1cc(O)ccc1O [etamsylate, diethylamine 2,5-dihydroxybenzenesulfonate] | not irritating | did not trigger any lysis, haemorrhage or coagulation processes |
| O=S(=O)([O-])c1cc(O)ccc1O.[K+] [potassium dobesilate] | not irritating | did not trigger any lysis, haemorrhage or coagulation processes |
